Experimental data as given in patent US5475087A, “Antagonists of human granulocyte-macrophage colony stimulating factor derived from the carboxyl terminus” (Schering Corporation, priority 1994, dated 1995).

Assays:
[1] = tested on: GM-CSF stimulation of KG-1 cell proliferation; test: KG-1 cell proliferation assay (MTT); type: cell-based, human
Experimental: The assay for GM-CSF is based on stimulation of proliferation of suitable cells such as KG-1 cells, a cell line established from the bone marrow of a patient with acute myelogenous leukemia. AML-193 cells can also be used in this assay. AML-193 are cells as described in B. Lange et al., Blood, 70: 192-199 (1987). Cells are incubated in microtiter plate wells with dilutions of GM-CSF for about 6 days and then incubated for about an additional 4 hours with the tetrazolium salt MTT (3-(4,5-dimethylthiozol-2-yl)-2,5-diphenyltetrazolium bromide). MTT is converted by mitochondrial dehydrogenase enzymes to a colored reaction product, formazan (Mosmann, I. (1983) J. Immunological Methods 65, 55-63). The formazan is extracted with acidified isopropanol and measured spectrophotometrically. The observed optical density is directly proportional to the log2 cell concentration. The results are expressed as ΔO.D., where ΔO.D. is the optical density of the sample minus the optical density of a baseline control lacking GM-CSF. […] The formazan is extracted with acidified isopropanol and measured spectrophotometrically. […] The results are expressed as ΔO.D., where ΔO.D. is the optical density of the sample minus the optical density of a baseline control lacking GM-CSF. […]

[2] = tested on: GM-CSF receptors on KG-1 cells; test: GM-CSF receptor binding assay on KG-1 cells; set-up: species or system human; details: 2700 sites/cell, read-out: Kd, low affinity site
Experimental: GM-CSF is radioiodinated by the method of Bolton and Hunter (Bolton, A. E. & Hunter, W. M. (1973) Biochem. J. 133, 529-539) and purified by gel filtration on a Sephadex G-25 column (PD-10, Pharmacia). The resulting ^125 I-GM-CSF has a specific radioactivity of about 1-3×10^6μCi/μMole and a stoichiometry of 0.4-1.2 moles ^125 I per mole of GM-CSF.
The samples are incubated at about 22° C. or 4° C. for 1 hour or 2 hours, respectively. Centrifugation for 21/2 minutes at 600×g yields a cell pellet which is washed twice with IMDM-10% FCS.
To measure the displacement of ^125 I-GM-CSF from receptors by polyclonal antibodies, antisera or pre-immune sera are included in the binding assays. Antibodies that recognize GM-CSF are incubated for about 10 minutes with ^125 I-GM-CSF prior to initiating binding by the addition of KG-1 cells, AML-193 cells or placental membranes. The sheep polyclonal antibody 1418, which recognized the GM-CSF receptor, is pre-incubated for about 10 minutes with KG-1 cells, AML-193 cells or placental membranes. Binding is initiated by ^125 I-GM-CSF addition.
GM-CSF (an article of commerce available, e.g., from Genzyme Corporation, Boston, Mass.) was radioiodinated by the method of Bolton and Hunter [Bolton, A. E. & Hunter, W. M., Biochem., J., 133: 529-539 (1973)] and purified by gel filtration on a Sephadex G-25 column (PD-10, Pharmacia). […]

[3] = target: GM-CSF receptors on placental membranes; test: GM-CSF receptor binding assay on placental membranes
Experimental: Placental membranes are prepared by homogenization, centrifugation to remove the 100×g fraction, and thorough washing of the 27,300×g fraction. Protease inhibitors may be present in the homogenization and wash buffers. […] Following incubation for about 1 hour at about 22° C., samples are centrifuged for about 21/2 minutes at 800×g and the placental membrane pellet washed twice with IMDM-10% FCS. Cell pellets are counted on a gamma counter. Saturating concentrations of unlabeled GM-CSF are added to control assays to measure non-specific binding. To measure the displacement of ^125 I-GM-CSF from receptors by polyclonal antibodies, antisera or pre-immune sera are included in the binding assays. Antibodies that recognize GM-CSF are incubated for about 10 minutes with ^125 I-GM-CSF prior to initiating binding by the addition of KG-1 cells, AML-193 cells or placental membranes. The sheep polyclonal antibody 1418, which recognized the GM-CSF receptor, is pre-incubated for about 10 minutes with KG-1 cells, AML-193 cells or placental membranes. Binding is initiated by ^125 I-GM-CSF addition. Placental membranes were prepared by homogenization, centrifugation to remove the 100×g fraction, and thorough washing of the 27,300×g fraction. Protease inhibitors were present in the homogenization and wash buffers. […] Cell pellets were counted on a gamma counter. […]

^125 I-GM-CSF: GM-CSF radioiodinated by the method of Bolton and Hunter, purified by gel filtration
biological activity compared with unlabeled GM-CSF [1]: same biological activity as unlabeled GM-CSF | Kd [2]: 0.73 nM | Kd [3]: 0.86 nM
